The values below come from US20250282785A1, “PYRROLIDINONE DERIVATIVES AS INHIBITORS OF NF KAPPA B INDUCING KINASE” (priority 2022, published 2025).

Assay [1] relates to p-IKKα levels in L363 (NIK translocated multiple myeloma) cells. The experiment in a line: Effect of compounds on p-IKKα levels in L363 cells (AlphaLISA SureFire Ultra). It counts as cell-based. To be noted: Homo sapiens, L-363; L363 cells, BAFF stimulated, MG132, 6 h; average of values; read-out: Assay 2 IC50. The essentials: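 L363 myeloma cells were BAFF-stimulated (250 ng/ml) overnight in DMEM/0.5% BSA, then exposed 6 h at 37° C to compound (11-point 1:3 series, 0.3% DMSO) with BAFF plus 10 uM MG132. p-IKKα (Ser 176/180) was read by AlphaLISA SureFire Ultra in lysates. IC50 came from sigmoidal fits normalized to stimulated and unstimulated controls.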

Assay [2] addresses Recombinant Human NF-Kappab-Inducing Kinase (NIK/MAP3K14) (Homo sapiens, UniProt Q99558). Kind of assay: Inhibition of auto-phosphorylation of recombinant human NIK/MAP3K14 (AlphaScreen). In kind it is biochemical. As to conditions: NIK/MAP3K14 auto-phosphorylation, 5 microM ATP, 1 nM enzyme, 2 h at 25° C.; average of values; read-out: Assay 1 IC50. The essentials:
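GST-tagged NIK (1 nM) auto-phosphorylation with 5 µM ATP in Tris pH 7.5/MgCl2 buffer, 0.7% DMSO, 2 h at 25 °C. Phospho-IKK Ser176/180 antibody detected by AlphaScreen beads. Signal normalized to full-enzyme and no-ATP controls; IC50 from sigmoidal fit of % inhibition vs log concentration.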

pIC50: −log10 of the molar value.

Sequence of Recombinant Human NF-Kappab-Inducing Kinase (NIK/MAP3K14) (Q99558 whole entry): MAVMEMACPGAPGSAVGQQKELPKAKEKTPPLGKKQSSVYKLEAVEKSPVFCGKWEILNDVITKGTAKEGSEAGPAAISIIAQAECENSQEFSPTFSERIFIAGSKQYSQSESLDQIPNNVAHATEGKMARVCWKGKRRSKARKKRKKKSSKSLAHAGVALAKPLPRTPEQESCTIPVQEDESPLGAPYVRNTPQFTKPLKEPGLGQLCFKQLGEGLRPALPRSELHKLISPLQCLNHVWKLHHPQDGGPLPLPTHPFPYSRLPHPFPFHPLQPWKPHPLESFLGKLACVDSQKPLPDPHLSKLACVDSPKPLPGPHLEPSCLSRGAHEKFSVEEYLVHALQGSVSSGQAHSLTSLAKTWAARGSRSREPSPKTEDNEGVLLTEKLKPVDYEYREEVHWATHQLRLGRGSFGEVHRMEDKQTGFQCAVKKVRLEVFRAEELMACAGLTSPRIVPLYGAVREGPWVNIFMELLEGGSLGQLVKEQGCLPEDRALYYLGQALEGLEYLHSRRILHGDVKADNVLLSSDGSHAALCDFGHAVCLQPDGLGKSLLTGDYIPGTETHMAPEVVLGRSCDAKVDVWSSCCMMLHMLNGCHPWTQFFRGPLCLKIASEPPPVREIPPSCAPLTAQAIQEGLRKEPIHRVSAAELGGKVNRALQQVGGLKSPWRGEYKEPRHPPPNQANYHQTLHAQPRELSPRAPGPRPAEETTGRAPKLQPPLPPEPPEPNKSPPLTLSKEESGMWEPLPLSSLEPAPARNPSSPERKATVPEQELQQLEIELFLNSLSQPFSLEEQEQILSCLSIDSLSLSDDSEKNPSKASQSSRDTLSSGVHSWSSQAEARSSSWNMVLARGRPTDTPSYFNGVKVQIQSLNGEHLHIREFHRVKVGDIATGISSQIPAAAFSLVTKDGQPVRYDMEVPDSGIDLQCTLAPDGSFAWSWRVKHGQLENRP

`CN1CC[C@@](O)(c2cc(-c3ccc(-c4cccc(C(N)=O)n4)o3)no2)C1=O` [Example 164, (R)-6-(5-(5-(3-Hydroxy-1-methyl-2-oxopyrrolidin-3-yl)isoxazol-3-yl)furan-2-yl)picolinamide]: the results for the pIC50 in assay [1] and in assay [2] were < 6.30 and > 7.00, respectively.

For `CN1CC[C@@](O)(c2cc(-c3cccc(-n4nc(C(N)=O)c5ccccc54)c3)no2)C1=O` [Example 166, (R)-1-(3-(5-(3-hydroxy-1-methyl-2-oxopyrrolidin-3-yl)isoxazol-3-yl)phenyl)-1H-indazole-3-carboxamide], the values for the negative-log IC50 (pIC50) in assay [1] and in assay [2] were 6.30 to 7.00 and > 7.00, respectively.

For the compound `CN1CC[C@@](O)(c2cc(-c3ccnc(-c4cccc(C(N)=O)n4)c3)no2)C1=O` [Example 168, (R)-4′-(5-(3-Hydroxy-1-methyl-2-oxopyrrolidin-3-yl)isoxazol-3-yl)-[2,2′-bipyridine]-6-carboxamide], the negative logarithm of the IC50 (pIC50) was < 6.30 in assay [1] and > 7.00 in assay [2].

Take `CN1CC[C@@](O)(c2cc(-c3ccnc(-c4ccc(N)c(C(N)=O)n4)c3)no2)C1=O` [Example 169, (R)-5-Amino-4′-(5-(3-hydroxy-1-methyl-2-oxopyrrolidin-3-yl)isoxazol-3-yl)-[2,2′-bipyridine]-6-carboxamide]: the pIC50 in assay [1] and in assay [2] was > 7.00 each time.

Take `Cc1nc(N)c2nc(-c3cc(-c4cc([C@]5(O)CCN(C)C5=O)on4)ccn3)ccc2n1` [Example 170, (R)-3-(3-(2-(4-Amino-2-methylpyrido[3,2-d]pyrimidin-6-yl)pyridin-4-yl)isoxazol-5-yl)-3-hydroxy-1-methylpyrrolidin-2-one]: the pIC50 is < 6.30 in assay [1] and > 7.00 in assay [2].

For `CN1CC[C@@](O)(c2cc(-c3cccc(-c4nc5c(c(C(N)=O)n4)[C@H]4CC[C@@H](C5)O4)c3)no2)C1=O` [Example 171, (5R,8S)-2-(3-(5-((R)-3-Hydroxy-1-methyl-2-oxopyrrolidin-3-yl)isoxazol-3-yl)phenyl)-6,7,8,9-tetrahydro-5H-5,8-epoxycyclohepta[d]pyrimidine-4-carboxamide], the pIC50 in assay [1] was < 6.30; in assay [2], > 7.00.

With `CN1CC[C@](O)(c2cc(-c3cccc(-c4nc5c(c(C(N)=O)n4)[C@H]4CC[C@@H](C5)O4)c3)no2)C1=O` [Example 172, (5R,8S)-2-(3-(5-((S)-3-Hydroxy-1-methyl-2-oxopyrrolidin-3-yl)isoxazol-3-yl)phenyl)-6,7,8,9-tetrahydro-5H-5,8-epoxycyclohepta[d]pyrimidine-4-carboxamide], the pIC50 in assay [1] and in assay [2] was < 6.30 each time.

`CN1CC[C@@](O)(c2cc(-c3cccc(-c4nc5c(c(C(N)=O)n4)[C@H]4CC[C@@H](C5)O4)c3)[nH]n2)C1=O` [Example 173, (5R,8S)-2-(3-(5-((R)-3-Hydroxy-1-methyl-2-oxopyrrolidin-3-yl)-1H-pyrazol-3-yl)phenyl)-6,7,8,9-tetrahydro-5H-5,8-epoxycyclohepta[d]pyrimidine-4-carboxamide]: the results for the pIC50 in assay [1] and in assay [2] were < 6.30 and > 7.00, respectively.

Regarding `Cc1ccc(-c2cc([C@]3(O)CCN(C)C3=O)no2)cc1-c1nc2c(N)ncnc2s1` [Example 175, (R)-3-(5-(3-(7-Aminothiazolo[5,4-d]pyrimidin-2-yl)-4-methylphenyl)isoxazol-3-yl)-3-hydroxy-1-methylpyrrolidin-2-one], the pIC50 in assay [1] was < 6.30; in assay [2] it was > 7.00.

Take `[2H]C1([2H])N(C)C(=O)[C@](O)(c2cc(-c3cccc(-c4cc(C5CC5)c(N)c(C(N)=O)n4)c3)no2)C1([2H])[2H]` [Example 177, (R)-3-Amino-4-cyclopropyl-6-(3-(5-(3-hydroxy-1-methyl-2-oxopyrrolidin-3-yl-4,4,5,5-d4)isoxazol-3-yl)phenyl)picolinamide]: the pIC50 in assay [1] and in assay [2] was > 7.00 in each case.

In the case of `CN1C(=O)[C@](O)(c2cc(-c3cccc(-c4cc(C5CC5)c(N)c(C(N)=O)n4)c3)no2)C[C@H]1C(F)(F)F` [Example 178, 3-Amino-4-cyclopropyl-6-(3-(5-((3R,5S)-3-hydroxy-1-methyl-2-oxo-5-(trifluoromethyl)pyrrolidin-3-yl)isoxazol-3-yl)phenyl)picolinamide], the pIC50 in assay [1] is < 6.30; in assay [2], > 7.00.

Regarding `[2H]C([2H])([2H])N1CC[C@@](O)(c2cc(-c3cccc(-c4cc(C5CC5)c(N)c(C(N)=O)n4)c3)no2)C1=O` [Example 179, (R)-3-Amino-4-cyclopropyl-6-(3-(5-(3-hydroxy-1-(methyl-d3)-2-oxopyrrolidin-3-yl)isoxazol-3-yl)phenyl)picolinamide], the pIC50 in assay [1] and in assay [2] was > 7.00 each time.

Take `[2H]C1([2H])N(C)C(=O)[C@](O)(c2cc(-c3cccc(-c4nc(C(N)=O)n5c4CCCC5)c3)no2)C1([2H])[2H]` [Example 180, (R)-1-(3-(5-(3-Hydroxy-1-methyl-2-oxopyrrolidin-3-yl-4,4,5,5-d4)isoxazol-3-yl)phenyl)-5,6,7,8-tetrahydroimidazo[1,5-a]pyridine-3-carboxamide]: the pIC50 in assay [1] is 6.30 to 7.00; in assay [2], > 7.00.

Take `[2H]C([2H])([2H])N1CC[C@@](O)(c2cc(-c3cccc(-c4nc(C(N)=O)n5c4CCCC5)c3)no2)C1=O` [Example 181, (R)-1-(3-(5-(3-Hydroxy-1-(methyl-d3)-2-oxopyrrolidin-3-yl)isoxazol-3-yl)phenyl)-5,6,7,8-tetrahydroimidazo[1,5-a]pyridine-3-carboxamide]: the pIC50 in assay [1] is 6.30 to 7.00; in assay [2], > 7.00.

For `CN1CC[C@@](O)(c2cc(-c3cccc(-c4cc(-c5ccnn5C)cc(C(N)=O)n4)c3)no2)C1=O` [Example 182, (R)-6-(3-(5-(3-Hydroxy-1-methyl-2-oxopyrrolidin-3-yl)isoxazol-3-yl)phenyl)-4-(1-methyl-1H-pyrazol-5-yl)picolinamide], the pIC50 was < 6.30 in assay [1] and > 7.00 in assay [2].

`CN1CC[C@@](O)(c2cc(-c3cccc(-c4cc(-c5ccns5)cc(C(N)=O)n4)c3)no2)C1=O` [Example 183, (R)-6-(3-(5-(3-Hydroxy-1-methyl-2-oxopyrrolidin-3-yl)isoxazol-3-yl)phenyl)-4-(isothiazol-5-yl)picolinamide]: the figures for the pIC50 in assay [1] and in assay [2] were < 6.30 and > 7.00, respectively.

As for `CN1CC[C@@](O)(c2cc(-c3cccc(-c4cc(-c5cncs5)cc(C(N)=O)n4)c3)no2)C1=O` [Example 184, (R)-6-(3-(5-(3-Hydroxy-1-methyl-2-oxopyrrolidin-3-yl)isoxazol-3-yl)phenyl)-4-(thiazol-5-yl)picolinamide], the pIC50 is 6.30 to 7.00 in assay [1] and > 7.00 in assay [2].

As for `CN1CC[C@@](O)(c2cc(-c3cccc(-c4cc(-c5ccnn5C5CC5)cc(C(N)=O)n4)c3)no2)C1=O` [Example 185, (R)-4-(1-Cyclopropyl-1H-pyrazol-5-yl)-6-(3-(5-(3-hydroxy-1-methyl-2-oxopyrrolidin-3-yl)isoxazol-3-yl)phenyl)picolinamide], the values for the pIC50 in assay [1] and in assay [2] were < 6.30 and > 7.00, respectively.

On to `Cc1ncc(-c2cc(C(N)=O)nc(-c3cccc(-c4cc([C@]5(O)CCN(C)C5=O)on4)c3)c2)o1` [Example 186, (R)-6-(3-(5-(3-Hydroxy-1-methyl-2-oxopyrrolidin-3-yl)isoxazol-3-yl)phenyl)-4-(2-methyloxazol-5-yl)picolinamide], for which the results for the pIC50 in assay [1] and in assay [2] were 6.30 to 7.00 and > 7.00, respectively.

As to `CCn1cc(-c2cc(C(N)=O)nc(-c3cccc(-c4cc([C@]5(O)CCN(C)C5=O)on4)c3)c2)c(C)n1` [Example 187, (R)-4-(1-Ethyl-3-methyl-1H-pyrazol-4-yl)-6-(3-(5-(3-hydroxy-1-methyl-2-oxopyrrolidin-3-yl)isoxazol-3-yl)phenyl)picolinamide], the pIC50 is 6.30 to 7.00 in assay [1] and > 7.00 in assay [2].

With `CCn1nc(C(F)(F)F)cc1-c1cc(C(N)=O)nc(-c2cccc(-c3cc([C@]4(O)CCN(C)C4=O)on3)c2)c1` [Example 188, (R)-4-(1-Ethyl-3-(trifluoromethyl)-1H-pyrazol-5-yl)-6-(3-(5-(3-hydroxy-1-methyl-2-oxopyrrolidin-3-yl)isoxazol-3-yl)phenyl)picolinamide], the pIC50 in assay [1] is < 6.30; in assay [2] it was > 7.00.

As for `COCCn1cc(-c2cc(C(N)=O)nc(-c3cccc(-c4cc([C@]5(O)CCN(C)C5=O)on4)c3)c2)cn1` [Example 189, (R)-6-(3-(5-(3-Hydroxy-1-methyl-2-oxopyrrolidin-3-yl)isoxazol-3-yl)phenyl)-4-(1-(2-methoxyethyl)-1H-pyrazol-4-yl)picolinamide], the pIC50 in assay [1] is 6.30 to 7.00; in assay [2] it was > 7.00.

For the compound `CN1CC[C@@](O)(c2cc(-c3cccc(-c4cc(-c5c[nH]nc5C5CC5)cc(C(N)=O)n4)c3)no2)C1=O` [Example 190, (R)-4-(3-Cyclopropyl-1H-pyrazol-4-yl)-6-(3-(5-(3-hydroxy-1-methyl-2-oxopyrrolidin-3-yl)isoxazol-3-yl)phenyl)picolinamide], the pIC50 is < 6.30 in assay [1] and > 7.00 in assay [2].

With `COc1ncc(-c2cc(C(N)=O)nc(-c3cccc(-c4cc([C@]5(O)CCN(C)C5=O)on4)c3)c2)s1` [Example 191, (R)-6-(3-(5-(3-Hydroxy-1-methyl-2-oxopyrrolidin-3-yl)isoxazol-3-yl)phenyl)-4-(2-methoxythiazol-5-yl)picolinamide], the pIC50 in assay [1] was 6.30 to 7.00; in assay [2] it was > 7.00.
